This note sets out measurements from ChEMBL document CHEMBL5604062, “ASAP - ZIKV NS2B-NS3 protease fluorescence dose response” (2024).

What is called IC50 is the concentration that inhibits the measured activity by half. Lower therefore signals greater potency.

The target in this experiment is Nonstructural protein 3 (Zika virus, UniProt A0A024AXB9). The experiment in a line: Functional biochemical assay to identify treatments for viral infectious disease that targets Zika NS2B-NS3 protease. Utilizing a direct enzyme activity measurement method, reading the fluorescence intensity is used to characterize the relative potency of inhibitors as IC50. Details: species or system PRVABC59.

Each structure is given as a SMILES string. Several values for one entry are separate records, joined by “and”; a condition that tells them apart may be missing. Identical values can stand only once.

Sequence of Nonstructural protein 3 (A0A024AXB9 whole entry): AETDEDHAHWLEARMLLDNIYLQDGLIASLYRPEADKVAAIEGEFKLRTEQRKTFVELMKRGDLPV

With `CC(C)NC(=O)[C@H](Nc1ccc2c(c1)CNC2)c1cc(Cl)cc2[nH]c(-c3ccccc3)nc12`, the IC50 is 42 nM and 19 nM and 54 nM and 33 nM and 16 nM and 69 nM.

Take `Cc1c(C(=O)Nc2cc(C3(C)OCCO3)ccn2)cc(C2CC2)n1C`: the IC50 was above 25000 nM.

As for `Cc1ncc(-c2cc(F)cc(C(=O)Nc3ccc4c(c3)CNC4)c2)o1`, the IC50 is 152 nM.

On to `O=C(Nc1cc2c(cc1Br)CNC2)c1cc(Cl)cc2[nH]ncc12`, for which the IC50 is 51 nM and 34 nM.

The molecule `O=C(Nc1cc(-c2cccnc2)ccn1)c1cc2n(n1)CCO2` had an IC50 above 25000 nM.

Turning to `Cc1c(C(=O)Nc2cccc([C@H]3CCOC3)c2)cc(C2CC2)n1C`, the IC50 is above 25000 nM.

For `O=C(Nc1cc(-c2cccnc2)ccn1)c1csc(C[C@H]2CCNC2)n1`, the IC50 is above 25000 nM.

With `O=C(Nc1cc(-c2cccnc2)ccn1)c1nc(C2CC2)co1`, the IC50 is above 25000 nM.

With `O=C(Nc1cc(-c2cccnc2)ccn1)c1cc2n(n1)CCC2`, the IC50 is above 25000 nM.

In the case of `CNC(=O)[C@H](Nc1cc(Cl)cc2[nH]ncc12)c1ccc2c(c1)CNC2`, the IC50 stood at 3990 nM.

The molecule `Cn1cc(C(F)(F)F)nc1C(=O)Nc1cc(-c2cccnc2)ccn1` had an IC50 above 25000 nM.

Take `Cc1c(C(=O)Nc2cc(-c3cccnc3)ccn2)cc(C2CCCC2)n1C`: the IC50 is above 25000 nM.

`C=CC[C@H]1NCc2cc(N[C@H](C(=O)NC(C)C)c3cccc4[nH]ncc34)ccc21`: the IC50 is above 25000 nM.

As for `COCCNC(=O)[C@H](Nc1cccc([C@H]2CCOC2)c1)c1cc(Cl)cc2[nH]ncc12`, the IC50 is above 25000 nM.

For `O=C(Nc1cc(-c2cccnc2)ccn1)c1csc(C[C@H]2CCCNC2)n1`, the IC50 was above 25000 nM.

With `O=C(Nc1ccc2c(c1)CNC2)c1cc(Cl)cc2[nH]c(-c3nc4c(s3)CCC4)nc12`, the IC50 came to 423 nM.

On to `O=C(Nc1ccc2c(c1)CN[C@H]2C[C@H](O)CO)c1cc(F)cc2[nH]ncc12`, for which the IC50 is 77 nM and 69 nM.

`CC(C)n1cc(C(=O)Nc2cc(-c3cccnc3)ccn2)c2ccccc21` registered an IC50 above 25000 nM.

Turning to `O=C(Nc1cc([C@H]2CCOC2)ccn1)c1cc(F)cc2[nH]ccc12`, the IC50 is above 25000 nM.

`Cn1nc(C(=O)Nc2cc(-c3cccnc3)ccn2)cc1C1CC1` returned an IC50 above 25000 nM.

With `O=C(Nc1ccc2c(c1)CNC2)c1cc(Cl)cc2[nH]c(-c3ccc(F)cc3O)nc12`, the IC50 was 87 nM and 58 nM.

Molecule `O=C(Nc1cc(-c2cccnc2)ccn1)c1cccc(C2CC2)c1` came in with an IC50 above 25000 nM.

Take `CCOC(=O)c1csc([C@H]2CCCN2C(=O)Nc2ccc3c(c2)CNC3)n1`: the IC50 was above 25000 nM.

The molecule `CNC(=O)[C@H](Nc1ccc2c(c1)CNC2)c1cccc2[nH]c(C(F)(F)F)nc12` had an IC50 of 3420 nM.

`Cc1c(C(=O)Nc2cc(-c3cccnc3)ccn2)cc(C(C)C)n1C` returned an IC50 above 25000 nM.

As for `O=C(NCC(F)F)[C@H](Nc1ccc2c(c1)CNC2)c1cc(F)cc2[nH]ccc12`, inhibition was half-maximal at 199 nM (IC50).

Take `O=C(Nc1ccc2c(c1)CNC2)c1cc(Cl)cc2[nH]c(-c3cn[nH]c3)cc12`: the IC50 was above 25000 nM.

Turning to `Cc1c(C(=O)Nc2cc(-c3cccnc3)ccn2)cc(C2CCCCC2)n1C`, the IC50 is above 12500 nM.

With `c1cc([C@@H]2C[C@H]2c2ccc3c(c2)CNC3)c2cn[nH]c2c1`, the IC50 is above 25000 nM.

`O=C(Nc1ccc2c(c1)CNC2)c1cc(Cl)cc2[nH]c(COc3ccccn3)nc12`: the IC50 turned out to be 210 nM.

On to `O=C1OCc2ccc(NC(=O)c3cc(F)cc4[nH]ncc34)cc21`, for which the IC50 is above 25000 nM.

Consider `Cc1c(C(=O)Nc2cc(C3CCOCC3)ccc2F)cc(C2CC2)n1C`, for which the IC50 was above 25000 nM.

The molecule `O=C(Nc1cc(-c2cccnc2)ccn1)c1cnn2c1CCC2` registered an IC50 above 25000 nM.

Consider `O=C(NCCC1CC1)[C@H](Nc1ccc2c(c1)CNC2)c1cc(Cl)cc(C2CC2)c1`, for which the IC50 was 74 nM and 49 nM.

`Cc1c(C(=O)NCc2ccnc(OC3CCOCC3)c2)cc(C2CC2)n1C`: the IC50 was above 25000 nM.

`O=C1Cc2c(C(=O)Nc3ccc4c(c3)CNC4)ccnc2N1` yielded an IC50 of 22800 nM.

Take `Cc1c(C(=O)NCc2cccc(C3COC3)c2)cc(C2CC2)n1C`: the IC50 is above 25000 nM.

`O=C(Nc1cc([C@H]2CCOC2)ccn1)c1cc(Cl)cc2c1CCC2` registered an IC50 above 25000 nM.

`Cc1c(CN)c(C(=O)Nc2cc(-c3cccnc3)ccn2)nn1C`: the IC50 was above 25000 nM.

With `Cc1c(C(=O)Nc2cc(-c3cccnc3)ccn2)cc(-c2ccccc2)n1C`, the IC50 is above 25000 nM.

For the molecule `Cc1cc(C(=O)Nc2cc(-c3cccnc3)ccn2)c(C)n1C`, the IC50 is above 25000 nM.

Turning to `O=C(Nc1cc(-c2cccnc2)ccn1)c1nnc(C2CC2)s1`, the IC50 was above 25000 nM.

As to `O=C(Nc1ccc2c(c1)C(=O)OC2)c1ccc2c(c1)CNC2`, the IC50 was above 25000 nM.

Take `O=C(Nc1cc(-c2cccnc2)ccn1)c1cn([C@H]2CCCNC2)nn1`: the IC50 is above 25000 nM.

Consider `O=C(Nc1ccc2c(c1)CS(=O)(=O)C2)c1cc(Cl)cc2[nH]ncc12`, for which the IC50 is above 25000 nM.

As for `Cc1c(C(=O)Nc2cc(SC3COC3)ccn2)cc(C2CC2)n1C`, the IC50 is above 25000 nM.

On to `O=C(Nc1ccc2c(c1)CNC2)c1cc(F)cc(-c2cccnc2)c1`, for which the IC50 is 90 nM and 87 nM.

Regarding `O=C1Cc2c(cccc2C(=O)Nc2cc([C@H]3CCOC3)ccn2)N1`, the IC50 was above 25000 nM.

`O=C(Nc1cc(-c2cccnc2)ccn1)c1csc(C2CC2)n1` yielded an IC50 above 25000 nM.

`O=C(Nc1ccc2c(c1)CNC2)c1cc(Cl)cc2[nH]c(-c3cnccc3O)nc12` yielded an IC50 of 395 nM.

On to `O=C(Nc1cc(Br)c2c(c1)CNC2)c1cc(F)cc2[nH]ncc12`, for which the IC50 was 27 nM and 15 nM.

Take `O=C(Nc1cc(-c2cccnc2)ccn1)c1ccc(C2CC2)cc1`: the IC50 was above 25000 nM.

`O=C(Nc1ccc2c(c1)CNC2)c1cc(C(F)(F)F)c2cn[nH]c2n1` returned an IC50 above 25000 nM.

With `O=C(NCC(F)F)[C@H](Nc1ccc2c(c1)CNC2)c1cc(F)cc2[nH]ncc12`, the IC50 was 58 nM and 37 nM.

`Cc1oc(C2CC2)nc1C(=O)Nc1cc(-c2cccnc2)ccn1` had an IC50 above 25000 nM.

As for `C=CC[C@H]1NCc2cc(N[C@H](C(=O)NC(C)C)c3cc(Cl)cc4[nH]ncc34)ccc21`, the IC50 stood at 994 nM.

Consider `Cc1c(C(=O)Nc2cccc(-c3cccnc3)c2)cc(C2CC2)n1C`, for which the IC50 was above 25000 nM.

As for `CNC(=O)[C@H](Nc1cccc([C@H]2CCOC2)c1)c1cc(C2CC2)n(C)n1`, the IC50 was above 25000 nM.

For the molecule `NCc1cc(Cl)cc(C(=O)Nc2cc([C@H]3CCOC3)ccn2)c1`, the IC50 is above 25000 nM.

Regarding `CC1=C(c2cc(NC(=O)c3cc(Cl)cc4[nH]ncc34)cc3c2CNC3)CCC1=O`, the IC50 turned out to be 137 nM.

For `Cc1c(C(=O)Nc2cc(-c3cccnc3)ccn2)cc(C(C)(C)C)n1C`, the IC50 was above 25000 nM.

As for `Cn1c(C2CC2)cc(C(=O)Nc2cc(-c3cccnc3)ccn2)c1C1CC1`, the IC50 was above 25000 nM.

In turn, `Cc1c(C(=O)Nc2ccnc(O[C@H]3CCOC3)c2)cc(C2CC2)n1C` returned an IC50 above 25000 nM.

Consider `O=C(NCC1CCCCC1)[C@H]1CCCN1C(=O)Nc1ccc2c(c1)CNC2`, for which the IC50 was above 25000 nM.

In turn, `O=C(Nc1cc(-c2cccnc2)ccn1)c1cc(C2CC2)no1` displayed an IC50 above 25000 nM.

Take `O=C(Nc1cc2c(c(C3=CC[C@H](O)CC3)c1)CNC2)c1cc(Cl)cc2[nH]ncc12`: the IC50 is 65 nM and 41 nM.

Molecule `Cn1nc(C2CC2)cc1C(=O)Nc1cc(-c2cccnc2)ccn1` showed an IC50 above 25000 nM.

As to `COCCNC(=O)[C@H](Nc1cccc([C@H]2CCOC2)c1)c1cc(F)cc2[nH]ccc12`, the IC50 is above 25000 nM.

`CNC(=O)[C@H](Nc1ccc2c(c1)CNC2)c1cc(Cl)cc2c1OCC2`: the IC50 is 256 nM.

On to `CC(C)NC(=O)[C@H](Nc1ccc2c(c1)CNC2)c1cc(F)cc2[nH]ccc12`, for which the IC50 was found to be 1030 nM.

`C=CC[C@H]1NCc2cc(NC(=O)c3cc(F)cc4c3CC(=O)N4)ccc21` came in with an IC50 of 156 nM.

`O=C(Nc1cc(-c2cccnc2)ccn1)c1cnc(C2CC2)s1`: the IC50 is above 25000 nM.

In the case of `NS(=O)(=O)c1cc(F)cc(C(=O)Nc2ccc3c(c2)CNC3)c1`, the IC50 was found to be 1490 nM.

The molecule `O=C(Nc1ccc2c(c1)CNC2)c1ccc2ccncc2c1` showed an IC50 of 13900 nM.

`O=C(Nc1ccc2c(c1)CNC2)c1cc(F)cc2c1CCNC2` returned an IC50 of 115 nM.

As for `O=C(Nc1ccc2c(c1)CNC2)c1cc(Br)cc2c1nc1n2CCCC1`, it took 554 nM to reach half-maximal inhibition (IC50).

For the molecule `O=C(Nc1ccc2c(c1)CNC2)c1n[nH]c2ccc(F)cc12`, inhibition was half-maximal at 16900 nM (IC50).

As for `O=C(Nc1ccc2c(c1)CNC2)c1cc(F)cc(-c2ccnn2CC2CC2)c1`, the IC50 worked out at 1070 nM.

In turn, `Fc1cc(CNc2ccc3c(c2)CNC3)c2cn[nH]c2c1` displayed an IC50 of 3510 nM.

Regarding `O=C(Nc1cc(-c2cccnc2)ccn1)c1cc(C2CC2)[nH]n1`, the IC50 is above 25000 nM.

Molecule `O=C(Nc1cc(-c2cccnc2)ccn1)c1cc2n(n1)CCS2(=O)=O` returned an IC50 above 25000 nM.

`Cn1nc(C(=O)Nc2cc([C@H]3CCOC3)ccn2)cc1C1CC1` returned a 50% inhibitory concentration (IC50) above 25000 nM.

Molecule `O=C1OCc2ccc(NC(=O)c3cc(F)cc4c3CCNC4)cc21` returned an IC50 above 25000 nM.

In turn, `Cc1c(C(=O)Nc2cccc(-c3ccccc3)c2)cc(C2CC2)n1C` came in with an IC50 above 25000 nM.

`Cc1c(C(=O)Nc2cccc(C3CCOCC3)c2)cc(C2CC2)n1C` came in with an IC50 above 25000 nM.

As for `O=C(Nc1cc(-c2cccnc2)ccn1)c1coc(C2CC2)n1`, the IC50 is above 25000 nM.

Regarding `N#Cc1cccc(-c2nc3c(C(=O)Nc4ccc5c(c4)CNC5)cc(Cl)cc3[nH]2)c1`, the IC50 is 99 nM and 18 nM and 48 nM.

For the molecule `Cc1c(C(=O)Nc2cc(-c3cccnc3)ccn2)cc(C2CCC2)n1C`, the IC50 is above 25000 nM.

Molecule `O=C(Nc1cc(-c2cccnc2)ccn1)c1cc2n(n1)CC(F)(F)C2` registered an IC50 above 25000 nM.

For the molecule `O=C(Nc1ccc2c(c1)CNC2)c1cc(F)cc(-c2cnc(C3CC3)s2)c1`, the IC50 is 56 nM and 43 nM.

For `O=C(Nc1cc(-c2cccnc2)ccn1)c1cc2n(n1)CC1(CC1)C2`, the half-maximal inhibitory concentration (IC50) was above 25000 nM.

Regarding `CC(C)(C)OC(=O)N1Cc2ccc(NC(=O)c3ccc4c(Br)csc4c3)cc2C1`, the IC50 is above 25000 nM.

In turn, `Nc1nc2c(Br)cc(C(=O)Nc3ccc4c(c3)CNC4)cc2s1` showed an IC50 of 5070 nM. That is a single-digit micromolar value.

On to `Cn1nc(C(F)(F)F)cc1C(=O)Nc1cc(-c2cccnc2)ccn1`, for which the IC50 was above 25000 nM.

`Cc1c(C(=O)Nc2cc(-c3ccccc3)ccn2)cc(C2CC2)n1C` came in with an IC50 above 25000 nM.
